From PMC6839570

Assay: Thioether (C-S) macrocyclisation: SN2' of the free C-terminal Cys-NH2 thiol on an N-terminal O-acetyl Morita-Baylis-Hillman (2-methylene-3-acetoxyacyl) residue, Et3N 3% v/v, 48 h; crude cleaved linear peptides
Settings: the molecule shown is the open-chain precursor, 16-membered ring, dry THF/CH2Cl2 1:1, 1.0 mM, 25.0 °C, 11 steps

SMILES | ring closure, overall yield
C=C(C(=O)N[C@@H](Cc1ccccc1)C(=O)N[C@H](CC(C)C)C(=O)N[C@@H](C)C(=O)N[C@@H](CS)C(N)=O)C(C)OC(C)=O (stereo partly drawn) [CH3CH(OAc)C(=CH2)CO-Phe-D-Leu-Ala-Cys-NH2] | 14.4%
C=C(C(=O)N[C@@H](Cc1ccccc1)C(=O)N[C@@H](CC(C)C)C(=O)N[C@@H](C)C(=O)N[C@@H](CS)C(N)=O)C(C)OC(C)=O (stereo partly drawn) [CH3CH(OAc)C(=CH2)CO-Phe-Leu-Ala-Cys-NH2] | 10.2%
C=C(C(=O)N[C@@H](Cc1ccccc1)C(=O)N[C@H](CC(C)C)C(=O)N[C@H](C)C(=O)N[C@@H](CS)C(N)=O)C(C)OC(C)=O (stereo partly drawn) [CH3CH(OAc)C(=CH2)CO-Phe-D-Leu-D-Ala-Cys-NH2] | 7.3%
C=C(C(=O)N[C@@H](Cc1ccccc1)C(=O)N[C@H](CC(C)C)C(=O)N[C@H](C)C(=O)N[C@@H](CS)C(N)=O)C(CCCCCC)OC(C)=O (stereo partly drawn) [n-C6H13CH(OAc)C(=CH2)CO-Phe-D-Leu-D-Ala-Cys-NH2] | 11.8%
C=C(C(=O)N[C@@H](C)C(=O)N[C@@H](CC(C)C)C(=O)N[C@@H](Cc1ccccc1)C(=O)N[C@@H](CS)C(N)=O)C(C)OC(C)=O (stereo partly drawn) [CH3CH(OAc)C(=CH2)CO-Ala-Leu-Phe-Cys-NH2] | 14.8%
C=C(C(=O)N[C@@H](Cc1ccccc1)C(=O)N[C@@H](CC(C)C)C(=O)N[C@H](C)C(=O)N[C@@H](CS)C(N)=O)C(C)OC(C)=O (stereo partly drawn) [CH3CH(OAc)C(=CH2)CO-Phe-Leu-D-Ala-Cys-NH2] | 2.7%
C=C(C(=O)N[C@@H](Cc1ccccc1)C(=O)N[C@@H](CC(C)C)C(=O)N[C@H](C)C(=O)N[C@@H](CS)C(N)=O)C(CCCCCC)OC(C)=O (stereo partly drawn) [n-C6H13CH(OAc)C(=CH2)CO-Phe-Leu-D-Ala-Cys-NH2] | 4.7%
